Source: patent US9956202B2, “Use of indolyl and indolinyl hydroxamates for treating neurodegenerative disorders or cognitive decicits” (Taipei Medical University, priority 2013, dated 2018)

Tests used:
[1] = tested on: NeuN-positive neurons of spinal cord; experiment: NeuN immunohistochemistry after spinal cord injury; assay type: in vivo; conditions: rats after spinal cord injury, 30 mg/Kg per day for 7 days, vs vehicle
Experimental: (§1) In this example, effects of compounds of this invention were verified using spinal cord injury animal model.
(§2) The spinal cord injury was produced by using the NYU (New York University) impactor device. The spinal cord contusion was performed under deep anesthesia with Zoleti150 (40 mg/kg i.p.) After a dorsal laminectomy was performed on T9, the spinal cord segments T9 were exposed. Then, the surgery of spinal cord injury was produced by dropping the 10 gram rod from a height of 50 mm.
(§3) Compound 1 was dissolved in 5% ethanol, 35% polyethylene glycol and 60% normal saline at a concentration of 15 mg/ml. […]
(§4) On 7th day after hemisection spinal cord injury, animals were deeply anesthetized by isoflurane and perfused through the left ventricle with phosphate-buffered saline (PBS), followed by cold 4% paraformaldehyde in 0.15M sodium phosphate buffer, pH 7.4. […] Furthermore, apoptosis after spinal cord injury was detected by terminal deoxynucleotidyl transferase-mediated deoxyuridine triphosphate nick-end labeling (TUNEL) using the apoptosis detection kit (Oncogene Research Products, Cambridge, Mass.). […] Only cells with clearly visible stain were counted. All data are presented as means±SEM of five consecutive cell quantifications.

C57BL/6J mice = experiment: Contextual fear conditioning (freezing behavioral test) in normal mice; assay type: in vivo; conditions: normal C57BL/6J mice; 50, 100, 200 mg/kg intraperitoneally once before training; test 24 h after training; dose dependent; *p<0.05, **p<0.01
Text: (§5) Tg2576 transgenic mice carry a transgene coding for the 695-amino acid isoform of human APP derived from a large Swedish family with early-onset Alzheimer's disease (AD). These mice express high concentrations of the mutant Aβ, develop significant number of amyloid plaques and display memory deficits. Tg2576 mice were purchased from The Jackson laboratory (Maine, US). C57BL/6J mice 6-8 week of age were purchased from BioLASCO Taiwan Co., Ltd for dose-dependent effect study. The animals were housed 5 per cage in a temperature (21±1° C.)—and humidity (70±5%)—controlled room, under a 12 h-12 h light-dark cycle (lights on at 6:00 a.m.). Animal had free access to food and water during the experiment. Behavior testing was carried out in the light phase of the cycle. All animal experiments were carried out in accordance with the guidelines established by the Institutional Animal Care and Utilization Committee of the Taipei Medical University (Taipei, Taiwan, R.O.C.).
as §3
(§6) All mice were transported to the laboratory for 2 hour before training to erase unnecessary stress. […] The data was recorded and calculated by its system software (TruScan 2.02).

Tg2576 mice = experiment: Contextual fear conditioning (CS-US pairing) in dementia animal model; assay type: in vivo; conditions: orally 50 mg/kg per day for 20 days, 6-month old p=0.0264, 12-month old p=0.0028 vs untreated of same age
Text: (§7) Tg2576 transgenic mice carry a transgene coding for the 695-amino acid isoform of human APP derived from a large Swedish family with early-onset Alzheimer's disease (AD). These mice express high concentrations of the mutant Aβ, develop significant number of amyloid plaques and display memory deficits.
as §5, with “All animal experiments were carried out in accordance with the guidelines established by the Institutional Animal Care and Utilization Committee of the Taipei Medical University (Taipei, Taiwan, R.O.C.).” left out
as §6

[2] = tested on: histone 3 and 4 acetylation, p21 and phospho-ERK; experiment: Western blot of histone 3 and 4 acetylation, p21 and phospho-ERK after spinal cord injury; assay type: in vivo, rats; conditions: 100 mg/kg intravenous injection, vs vehicle control
Experimental: as §1, §2, §3

[3] = tested on: Sprague-Dawley rats with spinal cord injury; experiment: BBB Locomotor Rating Scale after spinal cord injury; assay type: in vivo; conditions: intravenous 30 mg/Kg per day for 7 days, 7 days after spinal cord injury, vs vehicle, p=0.0147
Experimental: as §1
Male Sprague-Dawley rats (Academia Sinica, Taiwan), weighing 280-330 g, were kept two per cage for at least five days after their arrival. The rats had access to food and water at libitum and were housed within a room with a 12:12 h dark-light cycle. This study was performed in accordance with the guidelines provided by the Experimental Animal Laboratory and approved by the Animal Care and Use Committee in Taipei Medical University.
as §2
Behavioral tests and analyses were performed by observers blinded to the treatments. Locomotor function was observed and recorded using the Basso, Beattie, and Bresnahan (BBB) Locomotor Rating Scale. On days 1, 3, and 7 post injury, hindlimb motor function was assessed using the open-field BBB score locomotor test.
as §3

[4] = tested on: synaptic plasticity proteins; experiment: Western blotting of synaptic plasticity proteins in hippocampus of Tg2576 mice; assay type: in vivo; conditions: oral gavage 50 mg/kg per day for 20 days
Experimental: as §7
Compound 1 was dissolved in 5% ethanol, 35% polyethylene glycol and 60% normal saline at a concentration of 15 mg/ml. C57BL/6J Mice were treated with Compound 1 (50, 100, 200 mg/kg, intraperitoneally) or vehicle once before contexual fear conditioning training. Then, Tg2576 transgenic mice were treated with Compound 1 orally (50 mg/kg per day for 20 days) or vehicle at the ages of 5 months and 11 months.
Animals were deep anesthetized with choral hydrate (400 mg/kg) and perfused with both normal saline and 4% paraformaldehyde. The hippocampus were collected and lysed in lysis buffer (Lysis-M reagent, Roche). The lysates were incubated for 5 min on ice and centrifuged for 20 min at 14,000 r.p.m. and 4° C. The supernatant was collected as cytosolic protein extract. Protein concentrations were measured and normalized using Bradford protein assay kit (Pierce). After normalization, 30 μg of protein was subjected to western blotting. Immunoreactivity was examined by enhanced chemiluminescence (Millipore).

[5] = tested on: apoptotic cells of spinal cord; experiment: TUNEL staining of apoptosis after spinal cord injury; assay type: in vivo; conditions: rats after spinal cord injury, 30 mg/Kg per day for 7 days, vs vehicle
Experimental: as §1, §2, §3, §4

For `O=C(/C=C/c1ccc2c(ccn2S(=O)(=O)c2ccccc2)c1)NO` [compound 1, 3-(1-benzensulfonyl-1H-indol-5-yl)-N-hydroxy-acrylamide], the “neuron cells percentage (NeuN)” value ([1]; p<0.0001) was “significantly preserved”, the “neuron cells number (NeuN)” value ([1]; p=0.0151) was “significantly preserved” and the “strength of tone-shock pairing memory (freezing behavioral test)” value (C57BL/6J mice) was “increased significantly”. For the same compound, the “tone-shock pairing memory (contextual fear conditioning)” value (Tg2576 mice) was “enhanced”, the “expression of histone 4 acetylation (ac-H4)” value ([2]; p=0.0023) was “Significant increase” and the “expression of p21” value ([2]; p=0.0043) was “Significant increase”. For the same compound, the “expression of phospho-ERK (p-ERK)” value ([2]; p=0.0311) was “Significant increase”, the “expression of histone 3 acetylation (ac-H3)” value ([2]; p=0.0451) was “Significant increase” and the “BBB score (motor function)” value [3] was “significant recovery”. For the same compound, the “acetyl-Histone H4 expression in hippocampus” value ([4]; ###p=0.0008) was “elevated”, the “p21 expression in hippocampus” value ([4]; #p=0.0145) was “elevated” and the “NR2a protein expression in hippocampus” value ([4]; #p=0.0231) was “elevated”. The “pERK expression in hippocampus” value ([4]; #p=0.0428) was “elevated”, the “NR2b protein expression in hippocampus” value ([4]; #p=0.0492) was “elevated” and the “apoptotic cells number (TUNEL)” value ([5]; p=0.0015) was “significantly reduced”. The “apoptotic cells percentage (TUNEL)” value ([5]; p=0.0098) was “significantly reduced”.
